# According to ChEMBL document CHEMBL1770102, “Identification of novel potential antibiotics for tuberculosis by in silico structure-based drug screening” (Eur J Med Chem, 2011):
# Calls of active or inactive are those of the source. No cut-off for these calls is given here.
# Experiments:
# [1] = system: Mycobacterium vanbaalenii; experiment: Antibacterial activity against Mycobacterium vanbaalenii assessed as growth inhibition at 30 uM after 72 hrs by microplate reader; assay type: functional; conditions: Mycolicibacterium vanbaalenii
# Rhodococcus opacus [2] = experiment: Antibacterial activity against Rhodococcus opacus assessed as growth inhibition at 50 uM after 72 hrs by microplate reader; assay type: functional
# [3] = system: Mycobacterium tuberculosis; experiment: Antibacterial activity against Mycobacterium tuberculosis assessed as inhibition of cell growth after 24 hrs; assay type: functional, organism-based
# [4] = system: Mycobacterium vanbaalenii; experiment: Antibacterial activity against Mycobacterium vanbaalenii assessed as growth inhibition at 30 uM after 6 hrs by microplate reader; assay type: functional; conditions: Mycolicibacterium vanbaalenii
# Rhodococcus opacus [5] = experiment: Antibacterial activity against Rhodococcus opacus assessed as growth inhibition at 30 uM after 72 hrs by microplate reader; assay type: functional
# Escherichia coli [6] = experiment: Toxicity against Escherichia coli JM109; assay type: organism-based; conditions: in vivo
# Escherichia coli [7] = experiment: Toxicity against Escherichia coli BL21
# [8] = system: Mycobacterium vanbaalenii; experiment: Antibacterial activity against Mycobacterium vanbaalenii assessed as inhibition of cell growth after 24 hrs; assay type: functional, Mycolicibacterium vanbaalenii
# MDCK = experiment: Cytotoxicity against dog MDCK cells at 30 uM after 2 days by measuring absorbance at 460 nm; assay type: cell-based, Canis lupus familiaris; conditions: 48 h
# SH-SY5Y = experiment: Cytotoxicity against human SH-SY5Y cells at 30 uM after 2 days by measuring absorbance at 460 nm; assay type: functional, cell-based
# Rhodococcus opacus [9] = experiment: Antibacterial activity against Rhodococcus opacus assessed as growth inhibition at 100 ug/ml after 72 hrs by microplate reader; assay type: functional
smiles,measurement,setting,value
NNC(=O)c1ccncc1 [ISONIAZID],growth inhibition (GI),[1],Active
same,growth inhibition (GI),Rhodococcus opacus [2],Active
same,IC50,[3],15 µM
COc1cc2c(cc1NC(=O)CSc1nnc(-c3ccccc3C)n1Cc1ccoc1)oc1ccccc12,growth inhibition (GI),[4],Active
same,growth inhibition (GI),[1],Active
same,growth inhibition (GI),Rhodococcus opacus [5],Active
same,Activity,Escherichia coli [6],Non-toxic
same,Activity,Escherichia coli [7],Non-toxic
same,IC50,[8],5.3 µM
same,Activity,MDCK,Non-toxic
same,Activity,SH-SY5Y,Not toxic
CN(C(=O)CSc1nc(Nc2ccccc2)nc(N2CCOCC2)n1)C12CC3CC(CC(C3)C1)C2,growth inhibition (GI),[4],Active
same,growth inhibition (GI),[1],inactive
CC1(C)S[C@@H]2[C@H](NC(=O)[C@H](N)c3ccccc3)C(=O)N2[C@H]1C(=O)O,growth inhibition (GI),Rhodococcus opacus [9],Active
COC(=O)c1ccc(Cl)c(NC(=O)CN(c2ccc(OCc3ccccc3)cc2)S(C)(=O)=O)c1,growth inhibition (GI),[4],Active
same,growth inhibition (GI),[1],Active
COc1ccc(OC)c(NS(=O)(=O)c2ccc(NC(=O)CN3C(=O)c4cccc5cccc3c45)cc2)c1,growth inhibition (GI),[4],Active
same,growth inhibition (GI),[1],Active
same,Activity,MDCK,Toxic
same,Activity,SH-SY5Y,Toxic
O=S(=O)(NCCc1ccccc1)c1cccc2c(S(=O)(=O)NCCc3ccccc3)cccc12,growth inhibition (GI),[4],inactive
